The values that follow come from publication PMC12040169 (PLOS Biology, 2025).

This series is described as follows: in vitro. The settings on record: human, hela cells, % viability.

For orientation: viability means a read-out of living cells in per cent, often relative to untreated cells. In the case of `Cc1ccc2c(c1)CCCN2C(=O)c1cccnc1NCc1ccc2c(c1)OCO2` [CBK160113], the viability at 28.5 h, 10 µM stood at 94.5%.
As for `O=C(c1cnc2ccccc2c1)N1CCC(F)CC1` [CBK200273], the viability at 28.5 h, 10 µM amounted to 102%.
On to `C[C@@H]1CN(Cc2ccco2)[C@H](C)CN1CC(=O)Nc1nc2c(s1)CCCC2` [CBK286530], for which the viability at 28.5 h, 10 µM amounted to 100%.
`O=C(CCCN1C(=O)c2ccccc2C1=O)Oc1ccc(-c2ccccc2)cc1` [CBK267144]: the viability at 28.5 h, 10 µM was 98.1%.
The value for `Cc1csc2c(C3CCCN(C(=O)C4CC4)C3)nc(C)n12` (stereo not shown) [CBK285212] was 87.1%; that for `COCCCn1c(SCc2csc(-c3ccc(C)cc3)n2)n[nH]c1=O` [CBK295657] was 93.3%; that for `Cc1c(-c2ccccc2)n[nH]c1C(=O)NCCCc1ccccn1` [CBK282445] was 89%.
The value for `CCOC(=O)c1cnc(SCc2nc(N)nc(Nc3ccc(C)cc3)n2)nc1N` [CBK266292] was 115%.
The value for `COc1cc(NC(=O)C(c2ccccc2)c2ccccc2)c(C(=O)O)cc1OC` [CBK262001] was 90.1%; that for `O=C1/C(=C/c2cn(Cc3cccc4ccccc34)c3ccccc23)C(O)=NN1c1ccccc1` [CBK264849] was 94.7%; that for `COc1ccc(C(=O)N2CCC3(CCCN(C(=O)c4cc(OC)c(OC)c(OC)c4)C3)C2)cc1OC` (stereo not shown) [CBK131667] was 86.7%.
Regarding `Cc1cn(C2CC(O)C(CN=[N+]=[N-])O2)c(=O)[nH]c1=O` (stereo not shown) [CBK201256], the viability at 28.5 h, 10 µM was determined as 102%.
The figure for `CC(C)N(C(=O)Cn1c(-c2ccco2)cc2cccnc21)C(C)C` [CBK282682] is 99.4%.
The figure for `COc1cc(NC(=S)NCc2ccc(S(N)(=O)=O)cc2)cc(OC)c1` [CBK264935] is 108%.
The value for `O=C(Nc1ccccc1C(=O)NCc1ccccc1)c1cccc(F)c1` [CBK269351] was 88.9%.
On to `COc1ccc2nc(NC(=N)NC(=S)Nc3ccc(Cl)cc3)nc(C)c2c1` [CBK266677], for which the viability at 28.5 h, 10 µM amounted to 88.3%.
The figure for `CC(O)c1nc2ccc(Cl)cc2[nH]1` (stereo not shown) [CBK115573] is 102%; for `CCN(CC)c1c(C)nc2ccc(C(=O)NCCc3ccccn3)cn12` [CBK145951] it is 94.9%.
The value for `O=c1n(-c2ccc(OC(F)(F)F)cc2)ccn1S(=O)(=O)c1ccccc1` [CBK106655] was 95.1%.
The value for `O=C(NCc1nc2ccccc2[nH]1)c1cnc(-c2ccc(Cl)cc2)c(-c2ccco2)c1` [CBK037555] was 106%.
For `Cc1c(C)n(CC(O)CNCc2ccco2)c2ccccc12` (stereo not shown) [CBK263970G], the viability at 28.5 h, 10 µM amounted to 97%.
The value for `O=C(Nc1ccc(S(=O)(=O)Nc2ncccn2)cc1)c1ccc(N2C(=O)c3ccccc3C2=O)cc1` [CBK264868] was 94%; that for `CCOc1ncccc1C(=O)N(Cc1nnc(-c2ccc(Cl)cc2)o1)C1CC1` [CBK296934] was 96.3%.
`CC1(C)CC(=O)c2sc(NC(=O)c3cncnc3)nc2C1` [CBK144107]: the viability at 28.5 h, 10 µM turned out to be 101%.
The value for `Cc1ccc(S(=O)(=O)NCCCN2CCOCC2)c(C)c1C` [CBK264990] was 89.7%; that for `CCN1CC2(CCN(CCCCC3NC(=O)NC3=O)CC2)c2ccccc21` (stereo not shown) [CBK131489] was 96%; that for `O=C(CSc1ncnc2scc(-c3ccc(Cl)cc3)c12)Nc1nsc(-c2ccccc2)n1` [CBK266473] was 96.6%.
The figure for `Cn1c(SCc2ccc([N+](=O)[O-])cc2)nnc1C(O)c1ccccc1` (stereo not shown) [CBK269735] is 88.6%; for `CCCNc1nccnc1-c1ccc(C(=O)N2CCN(C)CC2)cc1` [CBK036892] it is 110%; for `CC(=O)NC1(c2ccc(F)cc2)CCN(CC(=O)NCC2CC2)CC1` [CBK283614] it is 93.9%.
As for `C=C(C)Cn1c(SC(C)C)nnc1-c1ccccc1OC(F)(F)F` [CBK200081], the viability at 28.5 h, 10 µM came out at 114%.
The figure for `COCCCOc1cc(N2CCCC2)ncn1` [CBK115896] is 102%.
The figure for `COCCNC(=O)c1sc2ccccc2c1C1CCN(Cc2ccc3ncccc3c2)C1` (stereo not shown) [CBK285680] is 85.2%; for `Cc1ccc(N2CCCN(C(=O)COc3ccccc3F)CC2)nn1` [CBK305261] it is 99.4%; for `CCn1cc(C2CN(S(=O)(=O)c3cccc(C)c3Cl)CCO2)cn1` (stereo not shown) [CBK304226] it is 91.3%.
The value for `CN1CCN(c2ccc(-c3ccc(Cl)cc3)cn2)CC1` [CBK036945] was 95.2%; that for `CC(c1ccc(Cl)cc1Cl)N(C)C(=O)Cn1cnc2c1CCCC2` (stereo not shown) [CBK306387] was 88%.
`O=[N+]([O-])c1cnc(NS(=O)(=O)c2ccc(-c3cc(C(F)(F)F)on3)s2)s1` [CBK067545]: the viability at 28.5 h, 10 µM amounted to 103%.
The value for `Cc1n[nH]c(C)c1CC(=O)NC(Cc1ccsc1)c1ccccn1` (stereo not shown) [CBK285271] was 105%; that for `CC(=O)OCc1c(C)cc(C)c(CN(C)C(C)c2ccon2)c1C` (stereo not shown) [CBK306780] was 79.3%.
The value for `COC(=O)COc1ccc(NC(=O)c2ccc([N+](=O)[O-])c(C)c2)cc1` [CBK268338] was 103%; that for `CCOC(=O)c1c(NC(=O)NCc2ccncc2)sc2c1CCC2` [CBK307591] was 81.6%; that for `O=C(Nc1ccc2n(c1=O)C[C@H]1C[C@@H]2CN(C(=O)COc2ccccc2)C1)C1CCCCC1` [CBK289175] was 91.9%.
The figure for `CN(C)S(=O)(=O)c1c(Cl)cccc1Cl` [CBK091643] is 84%; for `COc1ccc(-c2cncc(NCC3CCOCC3)n2)cc1` [CBK037285] it is 96.5%; for `COC1C(O)C(CO)OC1n1cnc2c(=O)[nH]cnc21` (stereo not shown) [CBK201328] it is 91.3%.
As to `CCNC(=O)N1CC2(CCN(CCC(N)=O)CC2)c2ccccc21` [CBK144598T], the viability at 28.5 h, 10 µM stood at 99.6%.
On to `COc1ccccc1-c1ccc(CC2(C(=O)NCCc3ccccc3)CCOCC2)cc1` [CBK286516], for which the viability at 28.5 h, 10 µM was 102%.
The value for `c1coc(CN2CCC(c3ccc4c(c3)OCO4)CC2)c1` [CBK284001] was 90.3%; that for `CC(=O)Nc1ccc(-c2cncc(N3CCN(C(=O)c4ccco4)CC3)n2)cc1` [CBK066065] was 99.3%; that for `CC1CCN(S(=O)(=O)c2cccs2)CC1` [CBK102093] was 118%.
The value for `COc1ccccc1-c1nccnc1OCc1cccs1` [CBK106819] was 88.4%.
Take `O=C(O)c1ccc2c(c1)C(=O)N(C1=NCCS1)C2=O` [CBK021809]: the viability at 28.5 h, 10 µM was determined as 89.6%.
Take `Brc1nc2c3c(nc(N4CCOCC4)c2s1)CCCC3` [CBK019604]: the viability at 28.5 h, 10 µM stood at 83.4%.
For `Cc1ccc(CN(C(=O)/C=C/C(=O)O)C(C)(C)C)cc1` [CBK286799], the viability at 28.5 h, 10 µM was determined as 91.5%.
The value for `OCCCn1cc(CN2CCC(CO)C2)c2ccccc21` (stereo not shown) [CBK282114] was 98.6%; that for `O=C(Nc1ccc(N2CCCCC2)c2ccncc12)c1cccc(-n2cnnn2)c1` [CBK297754] was 85.8%; that for `COc1ccc(Cl)cc1NC(=O)C(=O)NCc1ccccn1` [CBK263837] was 90.2%.
Take `O=C(c1ccoc1)N1CCN(S(=O)(=O)c2ccc3c(c2)Cc2cc(S(=O)(=O)N4CCN(C(=O)c5ccco5)CC4)ccc2-3)CC1` [CBK262299]: the viability at 28.5 h, 10 µM was determined as 113%.
For `Cc1nccn1Cc1ccccc1C(=O)NCCn1ccnc1` [CBK281580], the viability at 28.5 h, 10 µM worked out at 84.7%.
As for `Cc1nn(Cc2ccccc2)c(Cl)c1C=Cc1cc(C(=O)O)c2ccccc2n1` [CBK296942], the viability at 28.5 h, 10 µM was 95.4%.
The figure for `COc1cc(C2C(C(=O)c3ccc(C)o3)=C(O)C(=O)N2Cc2cccnc2)cc(OC)c1OC` (stereo not shown) [CBK264933] is 110%.
With `COc1ccc(/N=C2\NC(=O)/C(=C\C=C\c3ccccc3)S2)cc1` [CBK263417], the viability at 28.5 h, 10 µM is 94.2%.
The value for `Cc1ccc(NS(=O)(=O)c2cc3c(OC4CCNCC4)nccc3s2)cc1` [CBK046309C] was 96%.
The figure for `CC(C)(C)c1nc(NS(=O)(=O)c2ccc(Cl)cc2)sc1Br` [CBK014258] is 102%.
For the molecule `O=C(NCc1cccnc1)c1csc2c1CCCC2` [CBK305029], the viability at 28.5 h, 10 µM was 86.4%.
The figure for `CCCn1ccnc1SCC(=O)Nc1ccc(CN2CCOCC2)cc1` [CBK306068] is 87.8%; for `OCCN1CC2(CCN(CCC(c3ccccc3)c3ccccc3)CC2)c2ccccc21` [CBK126765] it is 88.9%.
The value for `O=C(NCc1ccco1)c1ccc2c(=O)n(-c3ccccc3)c(=O)[nH]c2c1` [CBK287823] was 83.7%.
Consider `CCC(C(=O)NCC1CCCN(C(C)C)C1)n1cnc2ccccc21` (stereo not shown) [CBK282706], for which the viability at 28.5 h, 10 µM was 88.6%.
The figure for `Cc1sc(NC(=O)c2cc(-c3ccncc3)nc3ccc(Cl)cc23)c(C#N)c1C` [CBK267742] is 87.7%; for `C=C(C)Cn1c(SCC(C)C)nnc1-c1ccccc1C(=O)NC(C)C` [CBK200096] it is 87.8%.
Turning to `O=C1COc2ccccc2C/C=C/CC2(CCN(C(=O)CCn3ccnc3)CC2)CN1` [CBK292131], the viability at 28.5 h, 10 µM amounted to 102%.
For the molecule `CCOC(=O)c1cnc2ccc(OC)cc2c1Nc1ccc(OC)cc1` [CBK095337], the viability at 28.5 h, 10 µM turned out to be 93.7%.
The figure for `COc1ccc(CCNC(=O)/C=C/C(=O)O)cc1OC` [CBK265373] is 103%; for `CC(C)N1CCC[C@H]1c1nc(-c2ccc(-c3cncnc3)nc2)no1` [CBK288892] it is 115%; for `CCC(CC(=O)NCc1c(C)n[nH]c1C)c1c[nH]c2ccccc12` (stereo not shown) [CBK282651] it is 87.1%.
With `O=C(/C=C\c1ccco1)Oc1ccc(/C=N\NC(=O)c2cncc(Br)c2)cc1` [CBK261385], the viability at 28.5 h, 10 µM was determined as 83.2%.
For the molecule `CC(C)Cc1ccc(C(CC(=O)O)C(=O)O)cc1` (stereo not shown) [CBK286703], the viability at 28.5 h, 10 µM is 109%.
